This is an account of results in patent publication US6391871B1 (priority 1996, dated 2002).

The subject of data set [1] is NMDA receptors. Type of data set: cell-based, chick. Here is the method: Potency rating=minimum concentration required to provide total protection against neurotoxic effects of NMDA (40 μM) in chick embryo retinal tissue tests
These experiments were performed using segments of chick embryo retina. This is a widely used model for studying the production and prevention of excitotoxic phenomena, since it is a simple and inexpensive preparation, and since chick tissue provides a better model of adult mammalian neurons than embryonic or juvenile mammalian tissue. All of the glutamate receptors that mediate excitotoxic phenomena are present in chick retinas, and are sensitive to excitotoxic stimulation. By contrast, in embryonic or juvenile mammalian tissue, various glutamate receptors are not fully matured and are not responsive in the same ways that occur in adult mammalian tissue.
In these tests, NMDA is introduced into the incubation medium in a concentration ([…]) sufficient to produce a fully developed excitotoxic lesion within 30 min, displaying acute degeneration and necrosis of the majority of neurons in the inner layers of the retina. The control retinas are incubated with NMDA alone, and experimental retinas are incubated with NMDA plus a test compound that is being evaluated for NMDA antagonist properties. […] All agents that prevent NMDA from hyperactivating NMDA receptors and thereby inducing an excitotoxic neurodegenerative reaction in the chick embryo retina are considered appropriate candidate drugs for preventing NMDA receptor hyperactivation and NMDA receptor burnout in the presymptomatic stages of Alzheimer's disease.
The concentration of the test compound required to prevent NMDA from inducing neuronal degeneration in the chick retina tissue is considered a measure of its expected potency for preventing NMDA receptor hyperactivation and NMDA receptor burnout in the presymptomatic stages of Alzheimer's disease.

The test system of data set [2] is cerebrocortical neurons. To be noted: Olney et al 1989, Corso et al 1994; cited from earlier work.
For data set [3] the following is noted: human anesthesia; cited from earlier work.
Data set [4] relates to neurons in neocortical and limbic brain regions. Description: Histopathology of rat brain after PCP/pilocarpine treatment. In kind it is in vivo. The protocol:
Adult female rats were injected subcutaneously with an NMDA antagonist drug, phencyclidine (PCP), at 50 milligrams of drug per kilogram of body weight (mg/kg sc), accompanied by a small dose of a muscarinic agonist, pilocarpine (10 mg/kg sc). At various times (4, 16, 24, 48, 72 and 96 hours) after treatment, the rats were anesthetized and perfused with fixative to allow their brains to be prepared for histological evaluation.
Degenerating neurons in various brain regions were also examined by electron microscopy, to obtain evidence for loss of synaptic complexes, and a computer-assisted cell plotting system was used to plot the location and count the frequency with which degenerating neurons were found in each brain region.
Massive loss of neurons throughout many neocortical and limbic brain regions is a hallmark characteristic of Alzheimer's disease. To establish that the NR/hypo mechanism results not only in cell injury but in cell death, the Applicants systematically examined the brains of rats 4 days following PCP/pilocarpine treatment. Sections prepared at 1 millimeter intervals from one side of the brain were stained, using hematoxylin and eosin; sections prepared at 1 millimeter intervals from the other side of the brain were stained using a silver impregnation stain. […]

In data set [5] the test system is vacuolated PC/RS neurons. In kind it is in vivo, rat. To be noted: NBQX 15 mg/kg ip every 30 minutes, 4 injections, with MK-801 0.5 mg/kg; 4 h; ± SEM.
Excerpt: The rats were sacrificed four hours after the treatment began, and brain tissue from the PC/RS region was histologically evaluated, by previously described methods (Olney et al 1991) using double-blinded techniques. The number of vacuolated PC/RS neurons were counted on each side of the brain at a rostrocaudal level immediately posterior to where the corpus callosum ceases decussating across the midline (approximately 5.6 mm caudal to Bregma; see Paxinos & Watson, The Rat Brain in Stereotaxic Coordinates, 2nd ed., 1986).
Data set [6] relates to vacuolated PC/RS neurons. Type of data set: in vivo, rat. The settings on record: MK-801 ip. The protocol: To try to avoid that problem, a subsequent set of tests was carried out in which NBQX was microinjected directly into the PC/RS cortex, at one of two doses, either 0.025 or 0.25 nmols.
In data set [7] the test system is pyramidal neurons in layers III and IV of the posterior cingulate and retrosplenial (PC/RS) cortices. The data set is described as follows: In vivo assay of toxic side effects of NMDA antagonists (vacuole formation in PC/RS cortex). To be noted: adult female rats, ip, sacrificed four hours after treatment.
For data set [8], the system named is neurons in rat brain. The data set is described as follows: PCP alone (minipump infusion or single high dose), brain damage in rats. Type of data set: in vivo. The text has this:
Initially, the Applicants found it difficult to perform a detailed analysis of the full pattern and type of damage that can be induced in the adult rat brain by treatment with an NMDA antagonist because of technical problems that had to be overcome. Therefore, the Applicants tried several approaches. For example, it had been claimed (Ellison 1994) that when PCP is infused continuously in adult rats for five days, by a subcutaneously implanted minipump, it causes injury to nerve cells in several brain regions.
However, they found (Corso et al 1994) that even when a near lethal dose (50-80 mg/kg sc) was administered, a fully developed widespread pattern of damage could only be induced in a very small percentage of treated animals.

Read-outs that look alike come from different tables or passages of the source.

`CNC1(c2ccccc2Cl)CCCCC1=O` (stereo not drawn) [Ketamine]: the “POTENCY RATING = minimum concentration required to provide total protection against neurotoxic effects of NMDA” value in data set [1] was determined as 10 µM. In addition, the “pathological changes in cerebral cortex / corticolimbic regions of adult rats” value in data set [2] is on record as “cause pathological changes in the cerebral cortex of adult rats”. The duration of action result in data set [3] is recorded as “about 15 minutes”.
In the case of `CC[C@@H]1C(=O)OC[C@@H]1Cc1cncn1C` [pilocarpine], in data set [4] (even at very high dosages), the “brain damage by pilocarpine by itself” value was “does not and cannot cause the type of damage observed in these tests”.
Consider `NS(=O)(=O)c1cccc2c1c([N+](=O)[O-])cc1nc(O)c(O)nc12` [NBQX], for which the “POTENCY RATING = minimum concentration required to provide total protection against neurotoxic effects of NMDA” value in data set [1] (NMDA 40 μM, chick embryo retinal tissue) stood at 100 µM. For the same compound, the “vacuolated neurons in PC/RS cortex, MK-801 plus NBQX” value in data set [5] is recorded as 52±22.4 vacuolated neurons per microscopic section. Also, the “reduction of vacuoles, protected (ipsilateral) side, lower dosage” value in data set [6] (NBQX 0.025 nmols microinjected into PC/RS cortex) is given as “about 20%”. Further, the “reduction of vacuoles, protected (ipsilateral) side, higher dosage” value in data set [6] (NBQX 0.25 nmols microinjected into PC/RS cortex) is on record as “about 80%”. The “neurotoxic (vacuole) reaction in PC/RS cortex, drug by itself” value in data set [7] is given as “did not cause vacuoles”.
For the compound `c1ccc(C2(N3CCCCC3)CCCCC2)cc1` [Phencyclidine], the “POTENCY RATING = minimum concentration required to provide total protection against neurotoxic effects of NMDA” value in data set [1] is 1 µM. Besides, the “NR/hypo-induced brain damage, PCP combined with pilocarpine” value in data set [4] (PCP 50 mg/kg i.p. combined with pilocarpine 10 mg/kg i.p.) was “reliably and consistently produced severe levels of NR/hypo-induced damage”. Further, the “rats with a full pattern of damage out of 40 rats treated” value in data set [8] (PCP 50 mg/kg i.p., single dose) is on record as 1. Moreover, the “neuronal damage after continuous infusion by subcutaneous minipump” value in data set [8] (adult rats, five days, same dose as Ellison 1994) is on record as “produced no neuronal damage at all”. The near lethal dose in data set [8] (rats) was 50-80 mg/kg sc. Also, in data set [2], the “pathological changes in cerebral cortex / corticolimbic regions of adult rats” value is on record as “produce pathological changes in various corticolimbic regions of the adult rat brain”.
